TGI and GI50 data for nine compounds are collected here from PubChem BioAssay (NCI).

SMILES strings stand for the structures.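 A five-concentration, 48-hour dose response in 96-well plates underlies each endpoint, interpolated linearly between surrounding concentrations. Abbreviation: GI50, concentration required for 50% inhibition of growth. At the TGI there is no net growth.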

Among the test systems are 786-0 renal; CCRF-CEM leukemia; DU-145 prostate; HCT-116 colon; HCT-15 colon; HL-60(TB) leukemia; HT29 colon; MALME-3M melanoma; MOLT-4 leukemia; NCI-H522 lung; NCI/ADR-RES ovarian; OVCAR-3 ovarian; SNB-75 CNS; T-47D breast; UO-31 renal.
What all share (assay): inhibition of tumour cell growth, NCI panel, 48 h

Take `Cc1ccc(Nc2c(C#N)[n+]([O-])c3cc(Cl)ccc3[n+]2[O-])cc1`: the TGI was greater than 100 µM with 786-0 renal; greater than 100 µM with CCRF-CEM leukemia; greater than 100 µM in the assay with DU-145 prostate; greater than 100 µM with HCT-116 colon; greater than 100 µM in the assay with HCT-15 colon; 21.1 µM in the assay on HL-60(TB) leukemia. For the same compound, the TGI in the assay on HT29 colon was greater than 61.1 µM; in the assay on MALME-3M melanoma it was greater than 100 µM; in the assay on MOLT-4 leukemia it was greater than 100 µM; in the assay with NCI-H522 lung, greater than 74.8 µM; in the assay on NCI/ADR-RES ovarian it was greater than 100 µM; in the assay with OVCAR-3 ovarian, greater than 42.4 µM. The TGI in the assay with SNB-75 CNS, in the assay on T-47D breast and in the assay on UO-31 renal was greater than 100 µM throughout.

As to `Cc1ccc(N=Nc2ccc(O)c(CN(C)C)c2)cc1`, the TGI in the assay on 786-0 renal came out at 54.7 µM; with CCRF-CEM leukemia it was 63 µM; in the assay with DU-145 prostate, 47.3 µM; with HCT-116 colon it was 51.8 µM; in the assay on HCT-15 colon, 50.2 µM; in the assay on HL-60(TB) leukemia, 41.3 µM. The TGI in the assay on HT29 colon amounted to 32.3 µM; in the assay on MALME-3M melanoma, 31.2 µM; in the assay on MOLT-4 leukemia, 53.4 µM; with NCI-H522 lung, 32.6 µM; in the assay with NCI/ADR-RES ovarian, 53.7 µM; with OVCAR-3 ovarian it was 31.8 µM. Also, the figures for the TGI in the assay with SNB-75 CNS, in the assay with T-47D breast and in the assay on UO-31 renal were 75.1 µM, 39.5 µM and 54.1 µM, respectively.

For the compound `CC(SC(=S)N1CCOCC1)C(=O)Nc1nnc(-c2ccccc2)o1` (stereo unspecified), the TGI was greater than 100 µM with 786-0 renal; 18.3 µM in the assay on CCRF-CEM leukemia; greater than 100 µM in the assay with DU-145 prostate; greater than 100 µM in the assay on HCT-116 colon; greater than 100 µM in the assay with HCT-15 colon; 20.5 µM in the assay on HL-60(TB) leukemia. Further, the TGI is greater than 100 µM with HT29 colon; greater than 100 µM in the assay on MALME-3M melanoma; greater than 100 µM in the assay with MOLT-4 leukemia; greater than 100 µM with NCI-H522 lung; 96.4 µM with NCI/ADR-RES ovarian; greater than 100 µM in the assay with OVCAR-3 ovarian. The TGI with SNB-75 CNS, in the assay on T-47D breast and in the assay with UO-31 renal was greater than 100 µM each time.

In the case of `Cc1ccc(-c2cc(C(F)(F)F)nn2-c2ccc(S(N)(=O)=O)cc2)cc1`, the TGI with 786-0 renal was greater than 89.2 µM; in the assay on CCRF-CEM leukemia, 40.7 µM; with DU-145 prostate, greater than 57.7 µM; in the assay with HCT-116 colon, greater than 58.2 µM; with HCT-15 colon, greater than 56.6 µM; with HL-60(TB) leukemia it was 42.7 µM. In addition, the TGI is greater than 55.5 µM in the assay with HT29 colon; 46.6 µM in the assay with MALME-3M melanoma; 53.2 µM in the assay on MOLT-4 leukemia; 77.6 µM in the assay on NCI-H522 lung; 43.1 µM in the assay with NCI/ADR-RES ovarian; 32 µM in the assay on OVCAR-3 ovarian. In addition, the TGI in the assay on SNB-75 CNS is greater than 53.8 µM; with T-47D breast it was greater than 61.8 µM; with UO-31 renal, greater than 53.2 µM. Moreover, in the assay with NCI-H522 lung, the GI50 was 19.9 µM.

`Cc1cc(S(=O)(=O)Nc2cc(N)[nH]n2)c(SCc2nc(N)nc(N(C)C)n2)cc1Cl`: the TGI with 786-0 renal, with CCRF-CEM leukemia, in the assay on DU-145 prostate, in the assay on HCT-116 colon, in the assay on HCT-15 colon and in the assay on HL-60(TB) leukemia was greater than 10 µM each time. For the same compound, the TGI in the assay on HT29 colon, in the assay with MALME-3M melanoma, in the assay on MOLT-4 leukemia, with NCI-H522 lung, with NCI/ADR-RES ovarian and with OVCAR-3 ovarian was greater than 10 µM each time. Besides, the TGI with SNB-75 CNS, in the assay with T-47D breast and in the assay with UO-31 renal was greater than 10 µM each time.

Consider `O=P1(Oc2ccccc2)N(CCCl)CCN1c1ccccc1` (stereo unspecified), for which the TGI with 786-0 renal, with CCRF-CEM leukemia, with DU-145 prostate, in the assay with HCT-116 colon, in the assay on HCT-15 colon and in the assay on HL-60(TB) leukemia was greater than 100 µM throughout. The TGI with HT29 colon, in the assay on MALME-3M melanoma, in the assay on MOLT-4 leukemia, in the assay with NCI-H522 lung, with NCI/ADR-RES ovarian and with OVCAR-3 ovarian was greater than 100 µM throughout. The TGI in the assay with SNB-75 CNS, with T-47D breast and with UO-31 renal was greater than 100 µM throughout.

Regarding `Nc1ccn(C2CCC(CO)O2)c(=S)n1` (stereo unspecified), the TGI in the assay on 786-0 renal, with CCRF-CEM leukemia, in the assay on DU-145 prostate, in the assay on HCT-116 colon, in the assay on HCT-15 colon and in the assay with HL-60(TB) leukemia was greater than 100 µM in each case. Besides, the TGI with HT29 colon, in the assay with MALME-3M melanoma, in the assay on MOLT-4 leukemia, with NCI-H522 lung, in the assay on NCI/ADR-RES ovarian and in the assay on OVCAR-3 ovarian was greater than 100 µM in each case. Besides, the TGI in the assay on SNB-75 CNS, in the assay on T-47D breast and in the assay on UO-31 renal was greater than 100 µM throughout.

For the compound `CCOC(=O)C(C)NC(=O)C(C)NC(=O)C(C)NC(=O)C(C)NC(=O)C(C)NC(=O)OCc1ccccc1` (stereo unspecified), the TGI in the assay on 786-0 renal, in the assay with CCRF-CEM leukemia, in the assay with DU-145 prostate, with HCT-116 colon, in the assay with HCT-15 colon and in the assay on HL-60(TB) leukemia was greater than 100 µM in each case. Also, the TGI in the assay with HT29 colon, with MALME-3M melanoma, in the assay with MOLT-4 leukemia, with NCI-H522 lung, in the assay on NCI/ADR-RES ovarian and with OVCAR-3 ovarian was greater than 100 µM throughout. The TGI in the assay with SNB-75 CNS, with T-47D breast and in the assay with UO-31 renal was greater than 100 µM throughout.

With `COc1cc2cccc(N)c2cc1OC`, the TGI in the assay on 786-0 renal, in the assay on CCRF-CEM leukemia, with DU-145 prostate, with HCT-116 colon, with HCT-15 colon and in the assay on HL-60(TB) leukemia was greater than 100 µM each time. Moreover, the TGI in the assay with HT29 colon, in the assay on MALME-3M melanoma, with MOLT-4 leukemia, in the assay on NCI-H522 lung, in the assay on NCI/ADR-RES ovarian and in the assay on OVCAR-3 ovarian was greater than 100 µM each time. In addition, the TGI with SNB-75 CNS, with T-47D breast and in the assay on UO-31 renal was greater than 100 µM throughout.
